The Kinase Knowledgebase extract (Sharma et al. 2016)
Values joined by “and” are separate entries in the source; they are usually repeats but may differ in a detail not shown here. Equal values may be shown once. Values belong to the compound of their own block, whether it stands above or below them.

Key:
EGFR [1] = target: EGFR (UniProt P00533); settings: cho.ir; for activation: concentration not given here
PIK3CD (Human) = PIK3CD (Human) (UniProt O00329); assay: Inhibition of PIK3CD Kinase Activity
PIK3CB (Human) [2] = target: PIK3CB (Human) (UniProt P42338); assay: Inhibition of PIK3CB Kinase Activity
PIK3CB (Human), sequence (P42338 whole entry, looked up): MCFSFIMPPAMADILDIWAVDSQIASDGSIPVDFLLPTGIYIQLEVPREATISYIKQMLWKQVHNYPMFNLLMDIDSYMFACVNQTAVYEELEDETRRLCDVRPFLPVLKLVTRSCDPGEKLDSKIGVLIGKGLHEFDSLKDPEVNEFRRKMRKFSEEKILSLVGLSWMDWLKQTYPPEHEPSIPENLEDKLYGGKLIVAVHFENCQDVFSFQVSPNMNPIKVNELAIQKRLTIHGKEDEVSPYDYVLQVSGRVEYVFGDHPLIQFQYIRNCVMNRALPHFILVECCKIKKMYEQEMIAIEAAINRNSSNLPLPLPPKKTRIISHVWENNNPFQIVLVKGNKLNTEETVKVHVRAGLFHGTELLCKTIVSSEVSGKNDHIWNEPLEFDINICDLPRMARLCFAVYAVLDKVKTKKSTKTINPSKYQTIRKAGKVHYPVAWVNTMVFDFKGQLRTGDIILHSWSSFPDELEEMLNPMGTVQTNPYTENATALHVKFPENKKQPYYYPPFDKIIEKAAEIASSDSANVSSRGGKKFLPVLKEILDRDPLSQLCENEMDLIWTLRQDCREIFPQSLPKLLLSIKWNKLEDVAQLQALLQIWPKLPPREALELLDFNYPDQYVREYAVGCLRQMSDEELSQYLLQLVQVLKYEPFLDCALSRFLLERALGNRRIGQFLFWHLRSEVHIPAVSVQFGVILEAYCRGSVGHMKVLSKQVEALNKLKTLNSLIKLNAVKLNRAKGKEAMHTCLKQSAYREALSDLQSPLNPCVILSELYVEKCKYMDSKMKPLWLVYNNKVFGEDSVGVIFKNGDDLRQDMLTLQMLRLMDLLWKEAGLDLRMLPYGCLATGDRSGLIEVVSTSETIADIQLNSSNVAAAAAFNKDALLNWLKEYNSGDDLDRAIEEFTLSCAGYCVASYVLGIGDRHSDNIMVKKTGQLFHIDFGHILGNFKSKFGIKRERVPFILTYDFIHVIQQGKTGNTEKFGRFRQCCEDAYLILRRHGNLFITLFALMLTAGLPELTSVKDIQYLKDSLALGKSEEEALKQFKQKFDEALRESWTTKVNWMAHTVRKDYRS

PIK3CA (human) = PIK3CA (human) (UniProt P42336); assay: Inhibition of PIK3CA Kinase Activity
PIK3CA (human), sequence (P42336 whole entry, looked up): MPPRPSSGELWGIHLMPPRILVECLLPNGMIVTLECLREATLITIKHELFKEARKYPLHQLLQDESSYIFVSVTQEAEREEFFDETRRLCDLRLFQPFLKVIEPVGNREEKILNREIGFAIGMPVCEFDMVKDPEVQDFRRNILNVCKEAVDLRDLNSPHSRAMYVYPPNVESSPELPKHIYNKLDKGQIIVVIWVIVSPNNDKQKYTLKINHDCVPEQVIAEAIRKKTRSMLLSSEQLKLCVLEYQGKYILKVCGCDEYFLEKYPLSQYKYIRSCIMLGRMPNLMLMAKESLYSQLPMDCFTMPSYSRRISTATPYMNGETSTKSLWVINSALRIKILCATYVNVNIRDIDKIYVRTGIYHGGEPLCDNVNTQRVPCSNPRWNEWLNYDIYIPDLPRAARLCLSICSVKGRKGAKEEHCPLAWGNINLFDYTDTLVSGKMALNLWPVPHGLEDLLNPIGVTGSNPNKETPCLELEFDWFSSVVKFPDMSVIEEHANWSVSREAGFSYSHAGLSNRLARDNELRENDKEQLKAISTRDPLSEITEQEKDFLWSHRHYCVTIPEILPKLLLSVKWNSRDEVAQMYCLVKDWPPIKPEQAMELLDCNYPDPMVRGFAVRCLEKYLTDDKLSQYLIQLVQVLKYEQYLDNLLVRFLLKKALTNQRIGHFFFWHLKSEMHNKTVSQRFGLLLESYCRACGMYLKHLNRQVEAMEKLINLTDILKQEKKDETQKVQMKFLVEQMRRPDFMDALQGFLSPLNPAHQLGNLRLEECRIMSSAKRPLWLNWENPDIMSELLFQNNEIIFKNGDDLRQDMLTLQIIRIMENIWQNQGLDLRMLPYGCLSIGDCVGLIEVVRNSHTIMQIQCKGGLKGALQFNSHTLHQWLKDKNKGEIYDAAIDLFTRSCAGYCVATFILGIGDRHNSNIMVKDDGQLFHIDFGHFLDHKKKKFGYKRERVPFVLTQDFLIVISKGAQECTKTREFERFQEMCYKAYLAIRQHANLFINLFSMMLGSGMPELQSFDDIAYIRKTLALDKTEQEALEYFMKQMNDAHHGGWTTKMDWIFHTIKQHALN

PIK3CG (human) = PIK3CG (human) (UniProt P48736); assay: Inhibition of PIK3CG Kinase Activity
EGFR (Hamster) = EGFR (Hamster) (UniProt P00533)
EGFR (Hamster), sequence (P00533 whole entry, looked up): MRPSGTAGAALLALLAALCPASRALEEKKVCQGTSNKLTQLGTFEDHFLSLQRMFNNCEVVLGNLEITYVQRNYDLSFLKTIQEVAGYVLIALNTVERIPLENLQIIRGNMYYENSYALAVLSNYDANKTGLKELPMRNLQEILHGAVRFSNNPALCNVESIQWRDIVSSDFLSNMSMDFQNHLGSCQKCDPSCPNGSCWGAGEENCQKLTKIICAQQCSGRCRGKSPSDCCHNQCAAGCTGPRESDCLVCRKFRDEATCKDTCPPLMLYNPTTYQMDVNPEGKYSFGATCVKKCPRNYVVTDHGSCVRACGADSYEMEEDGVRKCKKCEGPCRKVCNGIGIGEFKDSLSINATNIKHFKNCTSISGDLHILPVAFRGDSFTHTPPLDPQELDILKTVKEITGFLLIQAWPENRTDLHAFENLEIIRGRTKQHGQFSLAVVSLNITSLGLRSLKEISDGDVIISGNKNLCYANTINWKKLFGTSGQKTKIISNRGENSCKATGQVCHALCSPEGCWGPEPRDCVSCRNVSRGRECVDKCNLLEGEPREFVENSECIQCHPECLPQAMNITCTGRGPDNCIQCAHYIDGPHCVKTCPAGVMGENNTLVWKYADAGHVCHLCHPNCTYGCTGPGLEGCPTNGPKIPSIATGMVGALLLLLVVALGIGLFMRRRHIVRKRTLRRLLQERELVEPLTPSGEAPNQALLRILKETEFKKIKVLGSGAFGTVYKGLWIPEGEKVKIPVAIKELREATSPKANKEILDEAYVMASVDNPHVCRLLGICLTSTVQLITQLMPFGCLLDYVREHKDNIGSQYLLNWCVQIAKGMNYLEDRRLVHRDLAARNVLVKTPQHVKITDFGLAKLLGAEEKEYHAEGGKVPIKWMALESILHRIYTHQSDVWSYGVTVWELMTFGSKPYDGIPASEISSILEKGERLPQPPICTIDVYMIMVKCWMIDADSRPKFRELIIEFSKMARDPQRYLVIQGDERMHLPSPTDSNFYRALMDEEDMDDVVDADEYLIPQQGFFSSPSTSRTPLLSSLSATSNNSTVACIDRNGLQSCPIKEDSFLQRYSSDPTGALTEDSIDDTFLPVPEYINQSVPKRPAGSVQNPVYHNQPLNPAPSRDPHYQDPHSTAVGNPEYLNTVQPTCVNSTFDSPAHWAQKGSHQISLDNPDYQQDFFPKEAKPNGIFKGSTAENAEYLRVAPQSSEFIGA

EGFR [3] = target: EGFR (UniProt P00533)
CDK2 (human) [4] = target: CDK2 (human) (UniProt P24941); assay: Enzyme Assay
CDK2 (human) [5] = target: CDK2 (human) (UniProt P24941); assay: Enzyme Assay; remark: listed apart in the source
EGFR (mouse) = EGFR (mouse) (UniProt P00533)
PIK3CG = PIK3CG (UniProt P48736); assay: Inhibition of PIK3CG Kinase Activity
EGFR [6] = target: EGFR (UniProt P00533); settings: concentration not given here
EGFR [7] = target: EGFR (UniProt P00533); remark: listed apart in the source
MAPK14 [8] = target: MAPK14 (UniProt Q16539); assay: Enzyme Assay
MAPK14, sequence (Q16539 whole entry, looked up): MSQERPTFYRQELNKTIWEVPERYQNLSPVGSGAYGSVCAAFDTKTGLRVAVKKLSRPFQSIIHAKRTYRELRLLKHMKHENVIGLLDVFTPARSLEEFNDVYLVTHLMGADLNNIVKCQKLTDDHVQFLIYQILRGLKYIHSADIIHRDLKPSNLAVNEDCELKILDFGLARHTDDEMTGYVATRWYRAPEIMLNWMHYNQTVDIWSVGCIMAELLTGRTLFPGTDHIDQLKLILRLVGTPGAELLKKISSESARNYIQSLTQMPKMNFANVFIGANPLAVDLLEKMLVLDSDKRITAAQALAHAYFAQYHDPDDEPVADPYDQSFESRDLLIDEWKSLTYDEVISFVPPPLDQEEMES

PIK3CB (Human) [9] = target: PIK3CB (Human) (UniProt P42338); assay: Cell-Based Assay; settings: mda-468
EGFR [10] = target: EGFR (UniProt P00533); remark: listed apart in the source
MAPK14 [11] = target: MAPK14 (UniProt Q16539); assay: p38-alpha Kinase Inhibition
PIK3CG;PIK3CA (human) = PIK3CG;PIK3CA (human) (UniProt P48736); assay: Antiproliferation of PC3-MM2 Cells; settings: pc-3

EGFR, sequence (P00533 whole entry, looked up): as the sequence (P00533 whole entry, looked up) above

activation (EGFR [1]): < 5%
Compound: COc1ccc(C2=C(O)C(=O)C(c3ccccc3)=C(O)C2=O)cc1

IC50 (PIK3CD (Human)): 740 nM | IC50 (PIK3CB (Human) [2]): 127 nM | IC50 (PIK3CA (human)): 45 nM | IC50 (PIK3CG (human)): 1590 nM
Compound: CCN(CC)c1ncc2c(n1)-c1sc(NC(=O)N3CCC[C@@]3(Cc3ccccc3)C(N)=O)nc1CC2

IC50 (EGFR (Hamster)): > 100000 nM
Compound: COC(=O)c1cc(N=Cc2cccc(O)c2)ccc1O

IC50 (EGFR [3]): > 10000 nM
Compound: CN(C)CCCn1nc(C2=C(c3cn(-c4cccnc4)c4ccccc34)C(=O)NC2=O)c2ccccc21

IC50 (CDK2 (human) [4]): 70 nM | IC50 (CDK2 (human) [5]): 200 nM
Compound: CC[C@H](Nc1nc(NCc2cccnc2)c2ncn(C(C)C)c2n1)C(C)(C)O

Compound: CC(C)[C@H]1C(=O)N[C@H](CO)Cc2c[nH]c3cccc(c23)N1C
ID50 (EGFR (mouse)): 1110 nM

IC50 (PIK3CG): < 1500 nM
Compound: O=C1NC(=NCc2ccccc2)S/C1=C\c1ccc2c(c1)OCO2

IC50 (EGFR (Hamster)): > 10000 nM
Compound: COC(=O)c1cc(N=Cc2cc(OC)ccc2OC)ccc1O

activation (EGFR [1]): < 5%
Compound: O=C1C(O)=C(c2csc3ccccc23)C(=O)C(O)=C1c1ccccc1

inhibition (EGFR [6]): > 50%
Compound: NC(=O)c1c(NC(=O)Nc2ccc(F)cc2)sc2c1CCC(=O)C2

IC50 (PIK3CG): < 1000 nM
Compound: COC(=O)c1sccc1S(=O)(=O)N=C1NC(=O)/C(=C/c2ccc3ncccc3c2)S1

IC50 (EGFR [7]): > 10000 nM
Compound: O=C(Nc1ccc(C(F)(F)F)cc1)Nc1ncnc2nn3ccccc3c12

Ki (MAPK14 [8]): 5 nM
Compound: CC(C)S(=O)(=O)n1c(N)nc2ccc(-c3[nH]c(-c4c(F)cccc4F)nc3-c3ccccc3)cc21

IC50 (PIK3CG): < 1000 nM
Compound: CN=C1NC(=O)/C(=C/c2ccc3ncnc(N(C)C)c3c2)S1

inhibition (EGFR [6]): > 50%
Compound: NN=C1CCc2c(sc(NC(=O)C3CC3)c2C(N)=O)C1

inhibition (EGFR [6]): > 50%
Compound: NC(=O)c1c(NC(=O)C2CC2)sc2c(O)c(Br)ccc12

IC50 (CDK2 (human) [5]): 368 nM
Compound: CCC(Nc1nc(NCc2ccc(C(F)(F)F)nc2)c2ncn(C(C)C)c2n1)C(O)C(F)(F)F (configuration not stated)

IC50 (CDK2 (human) [5]): 120 nM
Compound: CC[C@H](Nc1nc(NCc2cccc(F)c2)c2ncn(C(C)C)c2n1)[C@@H](C)O

Kd (MAPK14 [8]): 14 nM
Compound: Cc1ccc(-n2nc(C(C)(C)C)cc2NC(=O)Nc2cc(C)c(OCCN3CCOCC3)c3ccccc23)cc1

IC50 (CDK2 (human) [5]): 949 nM
Compound: CC(C)n1cnc2c(NCc3cccnc3)nc(NCC(O)(C(F)(F)F)C(F)(F)F)nc21

activation (EGFR [1]): < 5%
Compound: Cn1cc(C2=C(O)C(=O)C(c3ccccc3)=C(O)C2=O)c2ccccc21

IC50 (PIK3CD (Human)): 124 nM | IC50 (PIK3CB (Human) [2]): 88 nM | IC50 (PIK3CA (human)): 39 nM | IC50 (PIK3CG (human)): 198 nM
Compound: C=CCN(/C=C1/C(=O)O[C@H](COC)[C@@]2(C)C1=C(O)C(=O)C1=C2[C@H](OC(C)=O)C[C@]2(C)C(=O)CC[C@H]12)CC=C

EC50 (EGFR [1]): 15000 nM
Compound: C=CC(C)(C)c1[nH]c2ccccc2c1C1=C(O)C(=O)C(c2c[nH]c3c(CC=C(C)C)cccc23)=C(O)C1=O

ID50 (EGFR (mouse)): 71 nM
Compound: CCCCC[C@@H](Cc1ccc2c3c(c[nH]c13)C[C@@H](CO)NC(=O)[C@H](C(C)C)N2C)NC(=O)c1ccc(N=[N+]=[N-])cc1

IC50 (PIK3CB (Human) [9]): > 10000 nM
Compound: C[C@H](Nc1ncnc(N)c1C#N)c1nc2cccc(C#N)c2nc1-c1ccccc1S(C)(=O)=O

IC50 (EGFR [7]): > 10000 nM
Compound: O=C(Nc1cccc(C(F)(F)F)c1)Nc1ncnc2nn3ccccc3c12

EC50 (EGFR [1]): 20000 nM
Compound: O=C1C(O)=C(c2c[nH]c3ccccc23)C(=O)C(O)=C1c1ccccc1

Compound: C=C[C@@]1(C)CC[C@](C)(C(C)C)c2cc3c4c(c[nH]c4c21)C[C@@H](CO)NC(=O)[C@H](C(C)C)N3C
ID50 (EGFR (mouse)): 2.23 nM

IC50 (PIK3CB (Human) [9]): > 10000 nM
Compound: C[C@H](Nc1ncnc(N)c1C#N)c1nc2ccc(F)cc2nc1-c1ccccn1

IC50 (MAPK14 [8]): 64600 nM
Compound: Fc1ccc(-c2ncn(CCCN3CCOCC3)c2-c2ccccn2)cc1

Compound: CC[C@H](Nc1nc(NCc2cnc(C)cc2C)c2ncn(C(C)C)c2n1)[C@@H](C)O
IC50 (CDK2 (human) [5]): 90 nM and 40 nM

IC50 (PIK3CB (Human) [2]): 34 nM | IC50 (PIK3CA (human)): < 9.1 nM
Compound: Cc1nc(N)nc2c1cc(-c1ccc(N)nc1)c(=O)n2[C@@H]1CCOC1

ID50 (EGFR (mouse)): 1320 nM
Compound: CC(C)[C@H]1C(=O)N[C@H](CO)Cc2c[nH]c3c(CCNC(=O)c4ccc(N=[N+]=[N-])cc4)ccc(c23)N1C

IC50 (EGFR (Hamster)): > 100000 nM
Compound: O=C(O)c1cc(N=Cc2ccccc2O)ccc1O

IC50 (MAPK14 [8]): 303 nM
Compound: Nc1ccccc1Nc1ccc2c(c1)OCc1ccccc1C2=O

IC50 (EGFR [10]): 30 nM
Compound: COc1ccc2ncnc(Nc3cccc(Br)c3)c2c1

IC50 (MAPK14 [11]): 330 nM
Compound: O=C(c1ccc2[nH]c3c(c2c1)CCNC3)N1CCC(Cc2ccccc2)CC1

EC50 (EGFR [1]): 25000 nM
Compound: Cc1cccc2c(C3=C(O)C(=O)C(c4c[nH]c5ccccc45)=C(O)C3=O)c[nH]c12

IC50 (PIK3CG;PIK3CA (human)): 1510 nM
Compound: COc1ccc2c(c1)c(/C=C1\Oc3cc(O)ccc3C1=O)c1n2CCNC1

inhibition (EGFR [6]): > 50%
Compound: NC(=O)c1c(NC(=O)C2CC2)sc2c1CCC(Br)(Br)C2=O

ID50 (EGFR (mouse)): 89 nM
Compound: CCCCC[C@H](Cc1ccc2c3c(c[nH]c13)C[C@@H](CO)NC(=O)[C@H](C(C)C)N2C)NC(=O)c1ccc(N=[N+]=[N-])cc1

IC50 (EGFR [7]): > 10000 nM
Compound: N#Cc1cccc(NC(=O)Nc2ncnc3nn4ccccc4c23)c1

IC50 (EGFR [7]): > 10000 nM
Compound: O=C(Nc1ccc(Br)cc1)Nc1ncnc2nn3ccccc3c12

ID50 (EGFR (mouse)): 1.33 nM
Compound: CCCCCCCCCCCC(=O)O[C@@H]1[C@@H](C)[C@@]2(O)[C@@H](C=C(CO)C[C@]3(O)C(=O)C(C)=C[C@@H]23)[C@@H]2C(C)(C)[C@]12OC(C)=O
